Laboratory results from patent publication US10954214B2 (Janssen Pharmaceutica NV, priority 2016, dated 2021).

Key:
[1] = target: full-length MALT1 protein (Strep-MALT1(1-824)-His) (Homo sapiens (Human), UniProt Q9UDY8); experiment: MALT1 Biochemical Protease Assay (Ac-LRSR-AMC substrate); conditions: 10 nM FL MALT1, 200 μM Ac-LRSR-AMC, 4 h at RT; read-out: MALT1_Biochemical activity (Ac-LRSR-amc) IC50
Method in brief: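 Fluorescence from AMC release off the quenched LRSR substrate was read after a 4 h reaction at RT. Values were normalised to no-enzyme and uninhibited controls and fitted for IC50 and Hill coefficient.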

[2] = system: IL10 secretion by OCI-LY3 ABC-DLBCL cells; experiment: Human IL10 Mesoscale assay (OCI-LY3); type: cell-based; conditions: Homo sapiens, 24 h
Experimental: (§1) NFKB signaling regulates the secretion of multiple cytokines, including IL6 and IL10. Secretion of the cytokines IL6 and IL10 by TMD8 or OCI-LY3 ABC-DLBCL cells was measured using a mesoscale assay. Inhibition of NFKB signaling by MALT1 or BTK inhibitors results in a decrease of IL6/10 secretion.
(§2) TMD8 or OCI-LY3 cells were propagated in RPMI-1640 (Sigma Aldrich) supplemented with 10% fetal bovine serum (HyClone), 1 mM sodium pyruvate (Invitrogen), 2 mM L-glutamine (Sigma Aldrich) and 1% PenStrep (Sigma Aldrich). Cell passage number should not exceed 30. Cells should be kept between 0.5-2.5 million cells per mL during culturing and cells should be supplemented every 2-3 days with fresh 50 μM beta-mercaptoenthanol. No beta-mercaptoethanol was used during the mesoscale assay.
(§3) For the Mesoscale assay, 100,000 TMD8 or OCI-LY3 cells were seeded per well into black-colored 96-well plates with clear bottom (Corning #3904) and test compounds were added in 9 dilution steps (1:2) ranging from 15 μM to 58.6 nM (final DMSO concentration 0.3%). DMSO control wells were used to determine the maximum signal (High Control (HC)). Treatment with the BTK inhibitor RN486 in a dose range from 30 nM to 131 pM (9 dilutions of 1:2) served as a positive control for NFKB pathway inhibition and was used to determine the maximum inhibition (Low Control (LC)). Compounds and cells were incubated for 24 h at 37° C. and 5% CO2 (assay volume is 150 μL). After 24 h of incubation 50 μL of the supernatant was transferred to a MSD plate (V-Plex Proinflammation Panel 1 (human) kit, Mesoscale (MSD)) and incubated for 2 h with vigorous shaking (600 rpm) at room temperature. Following incubation, plates were washed 3× with PBS+0.05% Tween-20 and 25 μL detection antibody solution (IL6 & IL10 antibodies in diluent 3 (MSD)) was added per well followed by 2 h of incubation with vigorous shaking (600 rpm) at room temperature. After 3× washes with PBS+0.05% Tween-20, plates were incubated with 150 μL 2× Read Buffer T and read on SECTOR imager.

[3] = system: IL6 secretion by OCI-LY3 ABC-DLBCL cells; experiment: Human IL6 Mesoscale assay (OCI-LY3); type: cell-based; conditions: Homo sapiens, 24 h
Experimental: as §1, §2, §3

Chain of full-length MALT1 protein (Strep-MALT1(1-824)-His) (Q9UDY8 whole entry): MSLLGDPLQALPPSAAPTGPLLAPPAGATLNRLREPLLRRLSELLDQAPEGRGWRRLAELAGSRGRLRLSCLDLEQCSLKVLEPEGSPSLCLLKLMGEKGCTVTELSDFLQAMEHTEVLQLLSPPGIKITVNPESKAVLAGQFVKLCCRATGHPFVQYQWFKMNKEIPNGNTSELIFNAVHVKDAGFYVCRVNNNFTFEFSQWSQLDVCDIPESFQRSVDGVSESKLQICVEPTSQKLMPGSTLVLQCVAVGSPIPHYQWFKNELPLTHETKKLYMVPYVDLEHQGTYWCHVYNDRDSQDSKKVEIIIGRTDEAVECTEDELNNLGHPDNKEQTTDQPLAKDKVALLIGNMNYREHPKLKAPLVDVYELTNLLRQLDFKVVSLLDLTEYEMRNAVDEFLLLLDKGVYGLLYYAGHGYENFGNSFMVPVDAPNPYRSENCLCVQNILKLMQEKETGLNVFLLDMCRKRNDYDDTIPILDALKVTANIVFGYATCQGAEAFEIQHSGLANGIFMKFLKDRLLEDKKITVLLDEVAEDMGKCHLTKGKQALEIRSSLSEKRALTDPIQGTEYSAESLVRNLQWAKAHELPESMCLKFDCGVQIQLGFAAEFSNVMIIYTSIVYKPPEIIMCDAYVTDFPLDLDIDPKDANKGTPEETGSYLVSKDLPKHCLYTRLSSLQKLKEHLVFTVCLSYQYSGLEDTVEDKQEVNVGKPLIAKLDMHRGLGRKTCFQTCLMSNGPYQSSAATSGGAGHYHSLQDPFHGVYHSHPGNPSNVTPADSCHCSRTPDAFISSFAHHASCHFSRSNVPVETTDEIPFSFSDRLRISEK

| SMILES | IC50 [1] [nM] | IC50 [2] [nM] | IC50 [3] [nM] |
| --- | --- | --- | --- |
| O=C(Nc1cnc(-n2nc3ccncc3n2)c(Cl)c1)c1cnn(-c2cccc3ncccc23)c1C(F)(F)F [Cpd 162, N-(6-(2H-[1,2,3]triazolo[4,5-c]pyridin-2-yl)-5-chloropyridin-3-yl)-1-(quinolin-5-yl)-5-(trifluoromethyl)-1H-pyrazole-4-carboxamide] | 363 | 309 | 437 |
| O=C(Nc1cnc(-n2nnc3cnccc32)c(Cl)c1)c1cnn(-c2cccc3ncccc23)c1C(F)(F)F [Cpd 163, N-(6-(1H-[1,2,3]triazolo[4,5-c]pyridin-1-yl)-5-chloropyridin-3-yl)-1-(quinolin-5-yl)-5-(trifluoromethyl)-1H-pyrazole-4-carboxamide] | 224 | 71 | 95 |
| O=C(Nc1cnc(-n2nnc3cccnc32)c(Cl)c1)c1cnn(-c2cccc3ncccc23)c1C(F)(F)F [Cpd 165, N-(6-(3H-[1,2,3]triazolo[4,5-b]pyridin-3-yl)-5-chloropyridin-3-yl)-1-(quinolin-5-yl)-5-(trifluoromethyl)-1H-pyrazole-4-carboxamide] | 245 | 339 | 447 |
| O=C(Nc1ccc(-c2n[nH]c(=O)[nH]2)c(Cl)c1)c1cnn(-c2cccc3ncccc23)c1C(F)(F)F [Cpd 166, N-(3-chloro-4-(5-oxo-4,5-dihydro-1H-1,2,4-triazol-3-yl)phenyl)-1-(quinolin-5-yl)-5-(trifluoromethyl)-1H-pyrazole-4-carboxamide] | 229 | 479 | 457 |
| O=C(Nc1cnc(-n2nncc2CO)c(Cl)c1)c1cnn(-c2cccc3c(=O)[nH]ccc23)c1C(F)(F)F [Cpd 168, N-(5-chloro-6-(5-(hydroxymethyl)-1H-1,2,3-triazol-1-yl)pyridin-3-yl)-1-(1-oxo-1,2-dihydroisoquinolin-5-yl)-5-(trifluoromethyl)-1H-pyrazole-4-carboxamide] | 107 | 44 | 123 |
| Cc1nc(-n2nccn2)c(Cl)cc1NC(=O)c1cnn(-c2cnc(N)c3ccccc23)c1C(F)(F)F [Cpd 180, 1-(1-aminoisoquinolin-4-yl)-N-(5-chloro-2-methyl-6-(2H-1,2,3-triazol-2-yl)pyridin-3-yl)-5-(trifluoromethyl)-1H-pyrazole-4-carboxamide] | 26 | 81 | 79 |
| N#Cc1c(C(=O)Nc2cnc(-n3nccn3)c(Cl)c2)cnn1-c1cccc2ncccc12 [Cpd 186, N-(5-Chloro-6-(2H-1,2,3-triazol-2-yl)pyridin-3-yl)-5-cyano-1-(quinolin-5-yl)-1H-pyrazole-4-carboxamide] | 380 | 891 | 1120 |
| O=C(Nc1cnc(-n2nccn2)c(Cl)c1)c1cnn(-c2cccc3ncccc23)c1Cl [Cpd 187, 5-Chloro-N-(5-chloro-6-(2H-1,2,3-triazol-2-yl)pyridin-3-yl)-1-(quinolin-5-yl)-1H-pyrazole-4-carboxamide] | 178 | 112 | 162 |
| C#Cc1cc(NC(=O)c2cnn(-c3cccc4c(=O)[nH]ccc34)c2C(F)(F)F)c(C)nc1-n1nccn1 [Cpd 190, N-(5-ethynyl-2-methyl-6-(2H-1,2,3-triazol-2-yl)pyridin-3-yl)-1-(1-oxo-1,2-dihydroisoquinolin-5-yl)-5-(trifluoromethyl)-1H-pyrazole-4-carboxamide] | 170 | 93 | 186 |
| CCc1nc(-n2nccn2)c(Cl)cc1NC(=O)c1cnn(-c2cccc3nccn23)c1C(F)(F)F [Cpd 195, N-(5-chloro-2-ethyl-6-(2H-1,2,3-triazol-2-yl)pyridin-3-yl)-1-(imidazo[1,2-a]pyridin-5-yl)-5-(trifluoromethyl)-1H-pyrazole-4-carboxamide] | 324 | 71 | 107 |
| CCc1cc(NC(=O)c2cnn(-c3cccc4nccn34)c2C(F)(F)F)c(CC)nc1-n1nccn1 [Cpd 196, N-(2,5-diethyl-6-(2H-1,2,3-triazol-2-yl)pyridin-3-yl)-1-(imidazo[1,2-a]pyridin-5-yl)-5-(trifluoromethyl)-1H-pyrazole-4-carboxamide] | 3160 | 41 | 83 |
| Cc1ccc(-n2ncc(C(=O)Nc3ccnc(C(F)(F)F)c3)c2C(F)(F)F)c2ccnn12 [Cpd 207, 1-(7-methylpyrazolo[1,5-a]pyridin-4-yl)-5-(trifluoromethyl)-N-(2-(trifluoromethyl)pyridin-4-yl)-1H-pyrazole-4-carboxamide] | 331 | 513 | 525 |
| O=C(Nc1ccnc(C(F)(F)F)c1)c1cnn(-c2cnc(N3CC(O)C3)c3sccc23)c1C(F)(F)F [Cpd 210, 1-(7-(3-hydroxyazetidin-1-yl)thieno[2,3-c]pyridin-4-yl)-5-(trifluoromethyl)-N-(2-(trifluoromethyl)pyridin-4-yl)-1H-pyrazole-4-carboxamide] | 72 | 380 | 417 |
| Cc1nc2c(-n3ncc(C(=O)Nc4cnc(-n5nccn5)c(C#N)c4)c3C(F)(F)F)cccc2o1 [Cpd 219, N-(5-cyano-6-(2H-1,2,3-triazol-2-yl)pyridin-3-yl)-1-(2-methylbenzo[d]oxazol-4-yl)-5-(trifluoromethyl)-1H-pyrazole-4-carboxamide] | 2690 | 126 | 102 |
| Cc1cc2nccc(-n3ncc(C(=O)Nc4cnc(-n5nccn5)c(C#N)c4)c3C(F)(F)F)c2s1 [Cpd 232, N-(5-cyano-6-(2H-1,2,3-triazol-2-yl)pyridin-3-yl)-1-(2-methylthieno[3,2-b]pyridin-7-yl)-5-(trifluoromethyl)-1H-pyrazole-4-carboxamide] | 891 | 182 | 145 |
| O=C(Nc1cnc(-n2nccn2)c(Cl)c1)c1cnn(-c2cccc3cncn23)c1C(F)(F)F [Cpd 233, N-(5-chloro-6-(2H-1,2,3-triazol-2-yl)pyridin-3-yl)-1-(imidazo[1,5-a]pyridin-5-yl)-5-(trifluoromethyl)-1H-pyrazole-4-carboxamide] | 871 | 240 | 331 |
| O=C(Nc1cnc(-n2nccn2)c(Cl)c1)c1cnn(-c2ccc3nccn3n2)c1C(F)(F)F [Cpd 242, N-(5-chloro-6-(2H-1,2,3-triazol-2-yl)pyridin-3-yl)-1-(imidazo[1,2-b]pyridazin-6-yl)-5-(trifluoromethyl)-1H-pyrazole-4-carboxamide] | 437 | 54 | 65 |
| NC(=O)c1cn(-c2ncc(NC(=O)c3cnn(-c4cccc5ncccc45)c3C(F)(F)F)cc2Cl)nn1 [Cpd 246, 1-(3-chloro-5-(1-(quinolin-5-yl)-5-(trifluoromethyl)-1H-pyrazole-4-carboxamido)pyridin-2-yl)-1H-1,2,3-triazole-4-carboxamide] | 380 | 63 | 135 |
| N#Cc1cc(NC(=O)c2cnn(-c3ccnc4nccn34)c2C(F)(F)F)cnc1-n1nccn1 [Cpd 250, N-(5-cyano-6-(2H-1,2,3-triazol-2-yl)pyridin-3-yl)-1-(imidazo[1,2-a]pyrimidin-5-yl)-5-(trifluoromethyl)-1H-pyrazole-4-carboxamide] | 316 | 407 | 269 |
| COc1cc(NC(=O)c2cnn(-c3cccc4ncccc34)c2C(F)(F)F)cnc1-n1nccn1 [Cpd 251, N-(5-methoxy-6-(2H-1,2,3-triazol-2-yl)pyridin-3-yl)-1-(quinolin-5-yl)-5-(trifluoromethyl)-1H-pyrazole-4-carboxamide] | 302 | 2240 | 2190 |
| Cc1nc(-n2nccn2)c(Cl)cc1NC(=O)c1cnn(-c2cccc3scnc23)c1C(F)(F)F [Cpd 252, 1-(benzo[d]thiazol-4-yl)-N-(5-chloro-2-methyl-6-(2H-1,2,3-triazol-2-yl)pyridin-3-yl)-5-(trifluoromethyl)-1H-pyrazole-4-carboxamide] | 282 | 123 | 158 |
